By IC50 is commonly meant the concentration at which inhibition is half-maximal. As usually defined, the GI50 is the concentration at which growth is held to half of that of the control. A higher GI50 goes with less potent growth inhibition.

Structures are written as SMILES.

The first assay has as its target T1, Ribonucleoside-diphosphate reductase subunit M2 (Homo sapiens, UniProt P31350).
T1 sequence (P31350 whole entry): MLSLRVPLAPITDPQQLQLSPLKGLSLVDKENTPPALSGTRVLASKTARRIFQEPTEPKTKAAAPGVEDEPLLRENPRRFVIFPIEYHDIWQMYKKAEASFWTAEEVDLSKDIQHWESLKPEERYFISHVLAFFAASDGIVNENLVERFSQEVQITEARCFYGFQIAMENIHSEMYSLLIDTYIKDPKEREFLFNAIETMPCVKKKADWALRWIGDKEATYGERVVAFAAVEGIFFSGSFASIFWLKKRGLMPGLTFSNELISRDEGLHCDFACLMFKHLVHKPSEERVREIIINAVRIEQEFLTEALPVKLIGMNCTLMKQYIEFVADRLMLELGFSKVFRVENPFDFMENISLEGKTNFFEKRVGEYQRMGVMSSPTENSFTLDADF
In words: Inhibition of human recombinant RRM2.
Details: not given
Take `NC(=O)NO` [HYDROXYUREA]: the IC50 was 601 µM.

The next assay deals with HCT-116. Description: Growth inhibition of human HCT-116 cells. The settings on record: pooled result: one value given for 3 cell lines, strains, targets or settings. It is filed as functional.
With `COc1cccc(/C=N/Nc2nc(C)c(C(=O)NO)s2)c1`, the GI50 was more than 50 µM.

`Cc1nc(N/N=C/c2ccc([N+](=O)[O-])cc2)sc1C(=O)NO` registered a GI50 of 40.7 µM.

Molecule `Cc1nc(N/N=C/c2ccc(Cl)cc2)sc1C(=O)NO` registered a GI50 of 21.6 µM.

Consider `C/C(=N\Nc1nc(C)c(C(=O)NO)s1)c1ccc(Cl)cc1`, for which the GI50 was more than 50 µM.

The molecule `COc1ccc(/C=N/Nc2nc(C)c(C(=O)NO)s2)cc1` returned a GI50 of 32.8 µM.

Regarding `Cc1nc(N/N=C/c2ccccc2O)sc1C(=O)NO`, it took 36.7 µM to inhibit growth by half (GI50).

For `Cc1nc(N/N=C/c2ccc(N(C)C)cc2)sc1C(=O)NO`, the GI50 was found to be 20.8 µM.

As to `C/C(=N\Nc1nc(C)c(C(=O)NO)s1)c1ccccc1`, the GI50 was more than 50 µM.

`Cc1nc(N/N=C/c2ccccc2)sc1C(=O)NO`: the GI50 was determined as 23.9 µM.

The values are drawn from ChEMBL document CHEMBL5550109, “Synergistic therapeutics: Co-targeting histone deacetylases and ribonucleotide reductase for enhanced cancer treatment” (Eur J Med Chem, 2024).
